Results as given in patent US20170342451A1, “BIOSYNTHESIS OF PACLITAXEL INTERMEDIATE” (Board of Trustees of Michigan State University, priority 2012, published 2017).

Molecular target: T1, TycA (Brevibacillus parabrevis, UniProt P09095)
T1 construct: this wild-type tycA cDNA encoding the A-, T-, and E-domains was subcloned into a pSU18 vector; made in house; host or cells: Escherichia coli BL21(DE3)
T1 sequence (P09095 with tags, fused parts or gaps): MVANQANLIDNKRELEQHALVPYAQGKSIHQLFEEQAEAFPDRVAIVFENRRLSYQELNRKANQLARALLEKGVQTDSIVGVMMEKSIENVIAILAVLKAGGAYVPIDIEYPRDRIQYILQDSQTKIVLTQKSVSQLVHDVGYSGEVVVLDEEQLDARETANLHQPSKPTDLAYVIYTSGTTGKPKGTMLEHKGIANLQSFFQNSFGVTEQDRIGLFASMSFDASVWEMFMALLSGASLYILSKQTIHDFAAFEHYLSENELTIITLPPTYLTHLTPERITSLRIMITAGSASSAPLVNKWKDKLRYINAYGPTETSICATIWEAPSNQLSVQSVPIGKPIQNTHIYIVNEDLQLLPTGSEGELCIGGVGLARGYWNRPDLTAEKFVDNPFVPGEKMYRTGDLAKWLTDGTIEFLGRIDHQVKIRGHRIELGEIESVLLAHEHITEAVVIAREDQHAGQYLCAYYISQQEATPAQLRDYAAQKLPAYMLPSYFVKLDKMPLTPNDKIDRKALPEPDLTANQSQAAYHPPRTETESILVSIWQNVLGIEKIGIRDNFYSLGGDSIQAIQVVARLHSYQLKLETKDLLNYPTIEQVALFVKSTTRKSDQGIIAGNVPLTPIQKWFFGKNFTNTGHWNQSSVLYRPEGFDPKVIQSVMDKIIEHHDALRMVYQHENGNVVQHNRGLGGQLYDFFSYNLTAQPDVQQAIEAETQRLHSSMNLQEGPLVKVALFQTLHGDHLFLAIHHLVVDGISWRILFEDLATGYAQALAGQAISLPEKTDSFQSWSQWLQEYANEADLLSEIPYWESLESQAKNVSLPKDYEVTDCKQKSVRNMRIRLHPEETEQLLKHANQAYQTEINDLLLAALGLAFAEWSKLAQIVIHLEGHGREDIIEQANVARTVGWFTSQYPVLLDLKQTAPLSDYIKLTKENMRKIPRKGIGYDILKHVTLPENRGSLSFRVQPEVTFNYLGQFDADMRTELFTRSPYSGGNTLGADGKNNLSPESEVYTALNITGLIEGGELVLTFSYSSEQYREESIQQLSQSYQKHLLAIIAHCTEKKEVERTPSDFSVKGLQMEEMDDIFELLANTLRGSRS
Assay: N-acetylcysteamine ligase reaction kinetics, TycA
Type: biochemical, Brevibacillus brevis
Conditions: NAC with (S)-α-Phe as cosubstrate; for kcat^NAC: TycA with NAC at apparent saturation
Procedure: Substrates (S)-α-phenylalanine, (R)-β-phenylalanine, and (2R,3S)-phenylisoserine (each at 1 mM) were separately incubated with TycA or TycA-S563A (20 μg) in the presence of N-acetylcysteamine (NAC; 1 mM), ATP (1 mM), and Mg^2+ (3 mM) to establish steady-state conditions with respect to protein concentration and time at 31° C. Under steady-state conditions, either (S)-phenylalanine, (R)-β-phenylalanine, or (2R,3S)-phenylisoserine at 5, 10, 20, 40, 80, 160, 250, 500, 1000 and 2000 μM was separately incubated with TycA or TycA-S563A (20 μg), ATP (1 mM), Mg^2+ (3 mM), and N-acetylcysteamine (1 mM, ‘NAC’) in duplicate, single stopped-time ([…]) 100 μL assays. The reactions were quenched by acidification to a pH of about 2 (10% formic acid in distilled water). […] The samples were analyzed on a Quattro-Premier Electro-Spray Mass Spectrometer coupled with Acquity® UPLC system fitted with a C18 Ascentis Express column (2.5×50 mm, 2.7 μm) at 30° C. […] In brief, the effluent from the chromatography column was directed to the Quattro Premier ESI mass spectrometer, in MRM scan mode, to quantify the biosynthetic acyl SNAC products. […] A standard curve was used to convert the peak area under the curve of the monitored fragment ion to concentration for each biosynthetic phenylpropionyl SNAC.
Authentic (5)-α-phenylalanyl, (R/S)-β-phenylalanyl- and (2R,3S)-phenylisoserinyl-SNAC were used to construct the standard curves by correlating the peak area under the curve of the monitored ion to concentration of the standard (at 0.16, 0.32, 0.64, 1.3, 2.5, 5, 10, 20, 40, 80, 160 and 320 μM) using linear regression analysis.
The KM values of TycA and TycA-S563A for N-acetylcysteamine (NAC) was assessed by incubating each enzyme separately with (S)-α-phenylalanine (1 mM), MgCl2 (3 mM), ATP (1 mM), and N-acetylcysteamine at 5, 10, 20, 40, 80, 160, 250, 500, 1000 and 2000 μM at 31° C. for 20 min. […]

## N[C@@H](c1ccccc1)[C@@H](O)C(=O)O [(2R,3S)-PheIso, (2R,3S)-phenylisoserine]
  kcat^NAC: 0.00317 ± 0.00017 s⁻¹
TycA with NAC
  Km: 132 ± 56 µM

## N[C@H](CC(=O)O)c1ccccc1 [(R)-β-Phe, (R)-β-phenylalanine]
  kcat^NAC: 0.006 ± 0.001 s⁻¹
